Test [1] deals with IRF pathway, THP1-Dual™ cells. Briefly: STING reporter assay in THP1-Dual cells, IRF pathway (Lucia luciferase, QUANTI-Luc). The test is classed as cell-based, human. The note with it: Homo sapiens, THP1-Dual, 20 h, THP1-Dual cells, 10% human plasma, 20 hours; Lucia luciferase; 100% activation = 100 μM cGAMP; read-out: IRF (EC50 μM). In a few lines: (§1)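 THP-1-derived dual-reporter cells treated with serially diluted compounds (final top concentration 100 μM) for 20 h at 37° C. NF-κB read as SEAP via QUANTI-Blue at OD620; IRF read as Lucia luminescence via QUANTI-Luc after 5 min. 100% activation set by 100 μM cGAMP, baseline by DMSO.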

For test [2], the system named is NF-κB pathway, THP1-Dual™ cells. The experiment in a line: STING reporter assay in THP1-Dual cells, NF-κB pathway (SEAP, QUANTI-Blue). The test is classed as cell-based, human. Conditions: Homo sapiens, THP1-Dual, 20 h, THP1-Dual cells, 10% human plasma, 20 hours; SEAP; 100% activation = 100 μM cGAMP; read-out: NFkB (EC50 μM). In a few lines:
as §1

Each structure is given as a SMILES string.

As for `C[C@@H](OC(=O)c1cc(Cl)cc2cc(CNC(=O)c3cncc4[nH]cnc34)oc12)C(F)(F)F` [EXAMPLE 265, (R)-1,1,1-Trifluoropropan-2-yl 2-((3H-imidazo[4,5-c]pyridine-7-carboxamido)methyl)-5-chlorobenzofuran-7-carboxylate], the EC50 in test [1] was 0.84 µM; in test [2], 0.82 µM.

For the molecule `C[C@H](NC(=O)c1cnn2cccnc12)c1cc2cc(Cl)cc(C(=O)OCC(F)(F)F)c2o1` [EXAMPLE 266, 2,2,2-Trifluoroethyl (S)-5-chloro-2-(1-(pyrazolo[1,5-a]pyrimidine-3-carboxamido)ethyl)benzofuran-7-carboxylate], the results for the EC50 in test [1] and in test [2] were 3.1 µM and 2.6 µM, respectively.

`C[C@H](NC(=O)c1cnn2cccnc12)c1cc2cc(Cl)cc(C(=O)OC3CC(F)(F)C3)c2o1` [EXAMPLE 267, 3,3-Difluorocyclobutyl (S)-5-chloro-2-(1-(pyrazolo[1,5-a]pyrimidine-3-carboxamido)ethyl)benzofuran-7-carboxylate]: the EC50 in test [1] turned out to be 5.8 µM; in test [2], 6.6 µM.

Consider `C[C@H](NC(=O)c1cnn2cccnc12)c1cc2cc(Cl)cc(C(=O)O[C@H](C)C(F)(F)F)c2o1` [EXAMPLE 268, (R)-1,1,1-Trifluoropropan-2-yl 5-chloro-2-((S)-1-(pyrazolo[1,5-a]pyrimidine-3-carboxamido)ethyl)benzofuran-7-carboxylate], for which the EC50 in test [1] stood at 6.1 µM; in test [2], 5.6 µM.

As for `O=C(OCC(F)(F)F)c1cc(Br)cc2cc(CNC(=O)c3cnn4cccnc34)oc12` [EXAMPLE 269, 2,2,2-Trifluoroethyl 5-bromo-2-((pyrazolo[1,5-a]pyrimidine-3-carboxamido)methyl)benzofuran-7-carboxylate], the concentration giving a half-maximal response (EC50) in test [1] and in test [2] was 1.1 µM each time.

`O=C(Cc1cc(Br)cc2cc(CNC(=O)c3cnn4cccnc34)oc12)OCC(F)(F)F` [EXAMPLE 270, 2,2,2-Trifluoroethyl 2-(5-bromo-2-((pyrazolo[1,5-a]pyrimidine-3-carboxamido)methyl)benzofuran-7-yl)acetate]: the EC50 in test [1] was found to be 30 µM; in test [2], 36 µM.

For the molecule `Cc1cc(C(=O)O[C@H](C)C(F)(F)F)c2oc(CNC(=O)c3cnn4cccnc34)cc2c1` [EXAMPLE 271, (R)-1,1,1-Trifluoropropan-2-yl 5-methyl-2-((pyrazolo[1,5-a]pyrimidine-3-carboxamido)methyl)-benzofuran-7-carboxylate], the EC50 in test [1] was found to be 0.8 µM; in test [2], 0.91 µM.

In the case of `Cc1cc(C(=O)O[C@@H](C)C(F)(F)F)c2oc(CNC(=O)c3cnn4cccnc34)cc2c1` [EXAMPLE 272, (S)-1,1,1-Trifluoropropan-2-yl 5-methyl-2-((pyrazolo[1,5-a]pyrimidine-3-carboxamido)methyl)-benzofuran-7-carboxylate], the EC50 in test [1] and in test [2] was 2.2 µM each time.

Consider `Cc1cc(C(=O)OC(C)C)c2oc(CNC(=O)c3cnn4cccnc34)cc2c1` [EXAMPLE 273, Isopropyl 5-methyl-2-((pyrazolo[1,5-a]pyrimidine-3-carboxamido)methyl)-benzofuran-7-carboxylate], for which the EC50 in test [1] worked out at 0.7 µM; in test [2], 0.75 µM.

Take `Cc1cc(C(=O)OC(CF)CF)c2oc(CNC(=O)c3cnn4cccnc34)cc2c1` [EXAMPLE 274, 1,3-Difluoropropan-2-yl 5-methyl-2-((pyrazolo[1,5-a]pyrimidine-3-carboxamido)methyl)-benzofuran-7-carboxylate]: the EC50 in test [1] stood at 0.8 µM; in test [2], 0.83 µM.

As to `Cc1cc(C(=O)OC2CC(F)(F)C2)c2oc(CNC(=O)c3cnn4cccnc34)cc2c1` [EXAMPLE 275, 3,3-Difluorocyclobutyl 5-methyl-2-((pyrazolo[1,5-a]pyrimidine-3-carboxamido)methyl)-benzofuran-7-carboxylate], the EC50 in test [1] amounted to 0.94 µM; in test [2], 0.72 µM.

As to `Cc1cc(C(=O)O[C@H](C)C(F)(F)F)c2oc(C(C)NC(=O)c3cnn4cccnc34)cc2c1` (stereo partly drawn) [EXAMPLE 276, (R)-1,1,1-Trifluoropropan-2-yl 5-methyl-2-(1-(pyrazolo[1,5-a]pyrimidine-3-carboxamido)ethyl)benzofuran-7-carboxylate], the EC50 in test [1] was 3 µM; in test [2], 3.4 µM.

Take `Cc1cc(C(=O)O[C@@H](C)C(F)(F)F)c2oc(C(C)NC(=O)c3cnn4cccnc34)cc2c1` (stereo partly drawn) [EXAMPLE 277, (S)-1,1,1-Trifluoropropan-2-yl 5-methyl-2-(1-(pyrazolo[1,5-a]pyrimidine-3-carboxamido)ethyl)benzofuran-7-carboxylate]: the EC50 in test [1] turned out to be 13 µM; in test [2], 16 µM.

Consider `Cc1cc(CC(=O)OCC(F)(F)F)c2oc(CNC(=O)c3cnn4cccnc34)cc2c1` [EXAMPLE 278, 2,2,2-Trifluoroethyl 2-(5-methyl-2-((pyrazolo[1,5-a]pyrimidine-3-carboxamido)methyl)benzofuran-7-yl)acetate], for which the EC50 was determined as 6.6 µM in test [1] and 5.5 µM in test [2].

As for `Cc1cc(CC(=O)O[C@H](C)C(F)(F)F)c2oc(CNC(=O)c3cnn4cccnc34)cc2c1` [EXAMPLE 279, (R)-1,1,1-Trifluoropropan-2-yl 2-(5-methyl-2-((pyrazolo[1,5-a]pyrimidine-3-carboxamido)methyl)benzofuran-7-yl)acetate], the EC50 in test [1] came to 35 µM; in test [2], 25 µM.

`COc1cc(C(=O)OCC(F)(F)F)c2oc(CNC(=O)c3cnn4cccnc34)cc2c1` [EXAMPLE 280, 2,2,2-Trifluoroethyl 5-methoxy-2-((pyrazolo[1,5-a]pyrimidine-3-carboxamido)methyl)benzofuran-7-carboxylate]: the EC50 in test [1] came to 2.5 µM; in test [2] it was 2.4 µM.

With `N#Cc1cc(C(=O)OCC(F)(F)F)c2oc(CNC(=O)c3cnn4cccnc34)cc2c1` [EXAMPLE 282, 2,2,2-Trifluoroethyl 5-cyano-2-((pyrazolo[1,5-a]pyrimidine-3-carboxamido)methyl)benzofuran-7-carboxylate], the EC50 in test [1] and in test [2] was 12 µM each time.

Consider `O=C(OCC(F)(F)F)c1cc(C(F)(F)F)cc2cc(CNC(=O)c3cnn4cccnc34)oc12` [EXAMPLE 283, 2,2,2-Trifluoroethyl 2-((pyrazolo[1,5-a]pyrimidine-3-carboxamido)methyl)-5-(trifluoromethyl)benzofuran-7-carboxylate], for which the results for the EC50 in test [1] and in test [2] were 0.4 µM and 0.52 µM, respectively.

On to `C[C@@H](OC(=O)c1c(F)c(F)cc2cc(CNC(=O)c3cnn4cccnc34)oc12)C(F)(F)F` [EXAMPLE 284, (R)-1,1,1-Trifluoropropan-2-yl 5,6-difluoro-2-((pyrazolo[1,5-a]pyrimidine-3-carboxamido)methyl)benzofuran-7-carboxylate], for which the half-maximal effective concentration (EC50) in test [1] worked out at 9.6 µM; in test [2], 6.3 µM.

Turning to `C[C@@H](OC(=O)c1c(F)ccc2cc(CNC(=O)c3cnn4cccnc34)oc12)C(F)(F)F` [EXAMPLE 285, (R)-1,1,1-Trifluoropropan-2-yl 6-fluoro-2-((pyrazolo[1,5-a]pyrimidine-3-carboxamido)methyl)benzofuran-7-carboxylate], the EC50 worked out at 1.4 µM in test [1] and 1.9 µM in test [2].

Consider `O=C(OCC(F)(F)F)c1c(F)ccc2cc(CNC(=O)c3cnn4cccnc34)oc12` [EXAMPLE 286, 2,2,2-Trifluoroethyl 6-fluoro-2-((pyrazolo[1,5-a]pyrimidine-3-carboxamido)methyl)benzofuran-7-carboxylate], for which the EC50 stood at 2.7 µM in test [1] and 2.5 µM in test [2].

As for `Cc1ccc2cc(CNC(=O)c3cnn4cccnc34)oc2c1C(=O)OCC(F)(F)F` [EXAMPLE 287, 2,2,2-Trifluoroethyl 6-methyl-2-((pyrazolo[1,5-a]pyrimidine-3-carboxamido)methyl)benzofuran-7-carboxylate], the EC50 in test [1] is 12 µM; in test [2], 18 µM.

Regarding `C[C@@H](OC(=O)c1cc(F)cc2c(Cl)c(CNC(=O)c3cnn4cccnc34)oc12)C(F)(F)F` [EXAMPLE 288, (R)-1,1,1-Trifluoropropan-2-yl 3-chloro-5-fluoro-2-((pyrazolo[1,5-a]pyrimidine-3-carboxamido)methyl)benzofuran-7-carboxylate], the concentration for a half-maximal effect (EC50) in test [1] and in test [2] was 0.36 µM in each case.

On to `C[C@H](OC(=O)c1cc(F)cc2c(Cl)c(CNC(=O)c3cnn4cccnc34)oc12)C(F)(F)F` [EXAMPLE 289, (S)-1,1,1-Trifluoropropan-2-yl 3-chloro-5-fluoro-2-((pyrazolo[1,5-a]pyrimidine-3-carboxamido)methyl)benzofuran-7-carboxylate], for which the values for the EC50 in test [1] and in test [2] were 0.62 µM and 0.71 µM, respectively.

Turning to `O=C(OC(CF)CF)c1cc(F)cc2c(Cl)c(CNC(=O)c3cnn4cccnc34)oc12` [EXAMPLE 290, 1,3-Difluoropropan-2-yl 3-chloro-5-fluoro-2-((pyrazolo[1,5-a]pyrimidine-3-carboxamido)methyl)benzofuran-7-carboxylate], the EC50 turned out to be 0.25 µM in test [1] and 0.35 µM in test [2].

On to `O=C(OC1CC(F)(F)C1)c1cc(F)cc2c(Cl)c(CNC(=O)c3cnn4cccnc34)oc12` [EXAMPLE 291, 3,3-Difluorocyclobutyl 3-chloro-5-fluoro-2-((pyrazolo[1,5-a]pyrimidine-3-carboxamido)methyl)benzofuran-7-carboxylate], for which the EC50 in test [1] is 0.34 µM; in test [2] it was 0.31 µM.

Take `C[C@H](NC(=O)c1cnn2cccnc12)c1oc2c(C(=O)OCC(F)(F)F)cc(F)cc2c1Cl` [EXAMPLE 292, 2,2,2-Trifluoroethyl (S)-3-chloro-5-fluoro-2-(1-(pyrazolo[1,5-a]pyrimidine-3-carboxamido)ethyl)benzofuran-7-carboxylate]: the EC50 came out at 1.7 µM in test [1] and 1.1 µM in test [2].

Values taken from patent US12673954B2 (BRISTOL-MYERS SQUIBB COMPANY, priority 2021, dated 2026).
